In patent US12421205B2, “GLP-1 receptor agonist” (HYUNDAI PHARM CO., LTD., priority 2019, dated 2025):
Read-outs that look alike come from different tables or passages of the source.

Assays:
[1] = target: T1, human GLP-1 receptor (Homo sapiens, UniProt P43220); experiment: cAMP activity test (cAMP dynamic HTRF kit) in CHO-K1/GLP-1 receptor-expressing cells; assay type: cell-based
T1 construct: host or cells: CHO-K1
Protocol: The next day, the medium was removed, and a 50 uL of HBSS medium containing 0.1% BSA, 0.5 mM IBMX, and 5 mM HEPES was added to each well. […] The cAMP activity was measured according to the manufacturer's instructions using the cAMP dynamic HTRF kit (Cisbio, 62AM4PEC). After incubation, the medium was discarded, and the cells were lysed. cAMP-d2 and anti-cAMP cryptate conjugate were added thereto and reacted for 3 hours. […] Intracellular cAMP competes with cAMP-d2 for anti-cAMP cryptate, and the measured signal of fluorescence resonance energy transfer (FRET) is inversely proportional to intracellular cAMP.

[2] = target: T2, hERG (Homo sapiens, UniProt Q12809); experiment: hERG inhibition test (Predictor hERG Fluorescence Polarization assay kit); assay type: binding; details: probe kit Tracer (fluorescent hERG ligand), hERG % inhibition at 10 uM, relative to E-4031 and solvent control
T2 construct: purchased Invitrogen PV5365
Protocol: To measure the hERG (Human ether-a-go-go-related gene) channel inhibition rate of the compound according to the present invention, the following test was performed using a Predictor hERG Fluorescence Polarization assay kit (Invitrogen, PV5365).
Specifically, a test substance was dissolved in DMSO to prepare a 50 mM solution. A 4 mM solution was prepared by diluting the 50 mM solution with DMSO in a U bottom 96-well plate (SPL, 34096), and was then diluted 100-fold with a test buffer to prepare a 40 uM (4×) solution. The positive control E-4031 (3 mM) provided in the kit was diluted 25-fold with a test buffer to prepare a 120 uM solution) 5 uL of the diluted test substance solution was dispensed into a 384-well assay plate (corning, 3677). hERG Membrane (2×) and Tracer (4×) provided in the kit were respectively added at 10 uL and 5 uL, and then subjected to the reaction at room temperature for 2.5 hours. After completion of the reaction, fluorescence polarization (mP) was measured with a Multimode Plate Reader (Perkin-Elmer, Envision) (excitation wavelength of 531 nm, and emission wavelength 579 nm). The value of the percent inhibitory activity (% inhibition) at 10 uM of each test substance was calculated by the following equation, and the results are shown in Table 2: (% inhibition)=100−{(mP of the compound according to the present invention−E-4031 mP)/(mP of the solvent control−E-4031 mP)}×100

[3] = cAMP activity, CHO-K1/GLP-1 receptor-expressing cells, read-out: EC50

T1 sequence (P43220 24-463): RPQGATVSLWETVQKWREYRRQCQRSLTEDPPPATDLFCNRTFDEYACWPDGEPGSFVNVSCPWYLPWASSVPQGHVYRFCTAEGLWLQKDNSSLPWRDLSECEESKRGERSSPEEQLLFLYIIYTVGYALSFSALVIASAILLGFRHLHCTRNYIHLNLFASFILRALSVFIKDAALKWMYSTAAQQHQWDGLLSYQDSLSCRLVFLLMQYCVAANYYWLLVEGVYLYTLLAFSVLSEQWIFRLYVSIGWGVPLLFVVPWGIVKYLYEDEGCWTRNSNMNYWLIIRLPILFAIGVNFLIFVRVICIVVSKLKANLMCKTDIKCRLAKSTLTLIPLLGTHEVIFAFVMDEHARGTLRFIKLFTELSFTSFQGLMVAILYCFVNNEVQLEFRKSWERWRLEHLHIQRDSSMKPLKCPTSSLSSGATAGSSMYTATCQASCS
T2 sequence (Q12809 whole entry): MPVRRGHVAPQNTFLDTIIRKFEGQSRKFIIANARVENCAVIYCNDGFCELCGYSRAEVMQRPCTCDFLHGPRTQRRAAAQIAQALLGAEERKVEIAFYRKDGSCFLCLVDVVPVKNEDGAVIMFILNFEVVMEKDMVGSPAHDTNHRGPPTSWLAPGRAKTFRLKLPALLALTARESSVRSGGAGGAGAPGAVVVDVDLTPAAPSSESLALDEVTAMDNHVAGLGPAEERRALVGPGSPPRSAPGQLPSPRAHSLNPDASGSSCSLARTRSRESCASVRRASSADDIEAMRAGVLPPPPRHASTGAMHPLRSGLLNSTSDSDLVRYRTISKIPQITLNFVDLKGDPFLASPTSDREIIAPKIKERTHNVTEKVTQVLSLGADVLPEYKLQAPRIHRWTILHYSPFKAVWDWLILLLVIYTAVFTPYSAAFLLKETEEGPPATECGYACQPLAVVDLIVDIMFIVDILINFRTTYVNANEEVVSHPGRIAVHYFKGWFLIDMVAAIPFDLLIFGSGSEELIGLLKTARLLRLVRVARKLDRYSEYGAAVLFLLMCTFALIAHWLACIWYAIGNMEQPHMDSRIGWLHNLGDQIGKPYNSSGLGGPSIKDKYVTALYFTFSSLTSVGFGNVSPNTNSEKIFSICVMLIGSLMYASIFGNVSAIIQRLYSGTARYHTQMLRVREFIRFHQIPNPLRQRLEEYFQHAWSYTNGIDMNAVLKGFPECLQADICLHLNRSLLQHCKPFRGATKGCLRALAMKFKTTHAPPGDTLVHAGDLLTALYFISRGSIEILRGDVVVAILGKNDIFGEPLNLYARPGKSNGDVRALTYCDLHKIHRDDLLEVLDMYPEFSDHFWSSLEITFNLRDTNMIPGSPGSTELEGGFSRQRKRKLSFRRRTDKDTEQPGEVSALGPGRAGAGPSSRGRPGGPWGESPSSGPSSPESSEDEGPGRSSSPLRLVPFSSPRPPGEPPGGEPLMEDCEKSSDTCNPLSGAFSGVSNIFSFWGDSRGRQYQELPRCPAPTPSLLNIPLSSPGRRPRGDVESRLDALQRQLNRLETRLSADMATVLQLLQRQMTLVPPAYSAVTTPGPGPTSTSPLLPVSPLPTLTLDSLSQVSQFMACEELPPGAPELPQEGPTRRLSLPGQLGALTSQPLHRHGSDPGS

Compound | EC50 [1, 3] [nM] | inhibition at 2.5 h, 10 µM [2] [%] | EC50 [1] [nM]
O=C(O)c1ccc2nc(Cc3ccc(-c4cccc(OCc5ccc(Cl)cc5F)n4)cc3F)n(CC3CCCO3)c2c1 (stereo not shown) [Example 17, 2-(4-(6-(4-chloro-2-fluorobenzyloxy)pyridin-2-yl)-2-fluorobenzyl)-1-((tetrahydrofuran-2-yl)methyl)-1H-benzo[d]imidazole-6-carboxylic acid] | 8.2 | -9.12 | –
N#Cc1ccc(COc2cccc(-c3ccc(Cc4nc5ccc(C(=O)O)cc5n4Cc4ccco4)cc3)n2)c(F)c1 [Example 18, 2-(4-(6-(4-cyano-2-fluorobenzyloxy)pyridin-2-yl)benzyl)-1-(furan-2-ylmethyl)-1H-benzo[d]imidazole-6-carboxylic acid] | 110 | 7.37 | –
N#Cc1ccc(COc2cccc(-c3ccc(Cc4nc5ccc(C(=O)O)cc5n4Cc4ccco4)c(F)c3)n2)c(F)c1 [Example 19, 2-(4-(6-(4-cyano-2-fluorobenzyloxy)pyridin-2-yl)-2-fluorobenzyl)-1-(furan-2-ylmethyl)-1H-benzo[d]imidazole-6-carboxylic acid] | 40 | 1.8 | –
COCCn1c(Cc2ccc(-c3cccc(OCc4ccc(C#N)cc4F)n3)cc2)nc2ccc(C(=O)O)cc21 [Example 20, 2-(4-(6-(4-cyano-2-fluorobenzyloxy)pyridin-2-yl)benzyl)-1-(2-methoxyethyl)-1H-benzo[d]imidazole-6-carboxylic acid] | 240 | 6.19 | –
COCCn1c(Cc2ccc(-c3cccc(OCc4ccc(C#N)cc4F)c3)cc2)nc2ccc(C(=O)O)cc21 [Example 21, 2-((3′-(4-cyano-2-fluorobenzyloxy)biphenyl-4-yl)methyl)-1-(2-methoxyethyl)-1H-benzo[d]imidazole-6-carboxylic acid] | 420 | -9.94 | –
COCCn1c(Cc2ccc(-c3cccc(OCc4ccc(Cl)cc4F)c3)cc2)nc2ccc(C(=O)O)cc21 [Example 22, 2-((3′-(4-chloro-2-fluorobenzyloxy)biphenyl-4-yl)methyl)-1-(2-methoxyethyl)-1H-benzo[d]imidazole-6-carboxylic acid] | 130 | -15.5 | –
COc1cccc(COc2cccc(-c3ccc(Cc4nc5ccc(C(=O)O)cc5n4Cc4ccco4)nc3)c2)c1 [Example 23, 1-(furan-2-ylmethyl)-2-((5-(3-(3-methoxybenzyloxy)phenyl)pyridin-2-yl)methyl)-1H-benzo[d]imidazole-6-carboxylic acid] | 610 | -6.89 | –
O=C(O)c1ccc2nc(Cc3ccc(-c4cccc(OCc5ccc(Cl)cc5F)c4)cc3)n(CC3CCCO3)c2c1 (stereo not shown) [Example 24, 2-((3′-(4-chloro-2-fluorobenzyloxy)biphenyl-4-yl)methyl)-1-((tetrahydrofuran-2-yl)methyl)-1H-benzo[d]imidazole-6-carboxylic acid] | 130 | -7.68 | –
COCCn1c(Cc2ccc(-c3cccc(OCc4ccc(C#N)cc4F)n3)cc2F)nc2ccc(C(=O)O)cc21 [Example 25, 2-(4-(6-(4-cyano-2-fluorobenzyloxy)pyridin-2-yl)-2-fluorobenzyl)-1-(2-methoxyethyl)-1H-benzo[d]imidazole-6-carboxylic acid] | 43 | 18.9 | –
COCCn1c(Cc2ccc(-c3cccc(OCc4ccc(C#N)cc4F)c3)cc2F)nc2ccc(C(=O)O)cc21 [Example 26, 2-((3′-(4-cyano-2-fluorobenzyloxy)-3-fluorobiphenyl-4-yl)methyl)-1-(2-methoxyethyl)-1H-benzo[d]imidazole-6-carboxylic acid] | 270 | 2.43 | –
N#Cc1ccc(COc2cccc(-c3ccc(Cc4nc5ccc(C(=O)O)cc5n4Cc4ccco4)cc3)c2)c(F)c1 [Example 27, 2-((3′-(4-cyano-2-fluorobenzyloxy)biphenyl-4-yl)methyl)-1-(furan-2-ylmethyl)-1H-benzo[d]imidazole-6-carboxylic acid] | 270 | -4.76 | –
N#Cc1ccc(COc2cccc(-c3ccc(Cc4nc5ccc(C(=O)O)cc5n4Cc4ccco4)c(F)c3)c2)c(F)c1 [Example 28, 2-((3′-(4-cyano-2-fluorobenzyloxy)-3-fluorobiphenyl-4-yl)methyl)-1-(furan-2-ylmethyl)-1H-benzo[d]imidazole-6-carboxylic acid] | 130 | 0.52 | –
Cc1cc(Cc2nc3ccc(C(=O)O)cc3n2Cc2ccco2)ccc1-c1cccc(OCc2ccc(C#N)cc2F)c1 [Example 29, 2-((3′-(4-cyano-2-fluorobenzyloxy)-2-methylbiphenyl-4-yl)methyl)-1-(furan-2-ylmethyl)-1H-benzo[d]imidazole-6-carboxylic acid] | 900 | -0.75 | –
Cc1cc(Cc2nc3ccc(C(=O)O)cc3n2Cc2ccco2)ccc1-c1cccc(OCc2ccc(C#N)cc2F)n1 [Example 30, 2-(4-(6-(4-cyano-2-fluorobenzyloxy)pyridin-2-yl)-3-methylbenzyl)-1-(furan-2-ylmethyl)-1H-benzo[d]imidazole-6-carboxylic acid] | 460 | 0.33 | –
O=C(O)c1ccc2nc(Cc3ccc(-c4cccc(OCc5ccc(Cl)cc5F)c4)cc3F)n(Cc3cnco3)c2c1 [Example 32, 2-((3′-(4-chloro-2-fluorobenzyloxy)-3-fluorobiphenyl-4-yl)methyl)-1-(oxazol-5-ylmethyl)-1H-benzo[d]imidazole-6-carboxylic acid] | 32 | -11.7 | –
O=C(O)c1ccc2nc(Cc3ccc(-c4cccc(OCc5ccc(Cl)cc5F)c4)c(F)c3)n(Cc3cnco3)c2c1 [Example 33, 2-((3′-(4-chloro-2-fluorobenzyloxy)-2-fluorobiphenyl-4-yl)methyl)-1-(oxazol-5-ylmethyl)-1H-benzo[d]imidazole-6-carboxylic acid] | 60 | -9.08 | –
O=C(O)c1ccc2nc(Cc3ccc(-c4cccc(OCc5ccc(Cl)cc5F)n4)cc3F)n(Cc3cnco3)c2c1 [Example 34, 2-(4-(6-(4-chloro-2-fluorobenzyloxy)pyridin-2-yl)-2-fluorobenzyl)-1-(oxazol-5-ylmethyl)-1H-benzo[d]imidazole-6-carboxylic acid] | 9.2 | -12.6 | –
O=C(O)c1ccc2nc(Cc3ccc(-c4cccc(OCc5ccc(Cl)cc5F)n4)c(F)c3)n(Cc3cnco3)c2c1 [Example 35, 2-(4-(6-(4-chloro-2-fluorobenzyloxy)pyridin-2-yl)-3-fluorobenzyl)-1-(oxazol-5-ylmethyl)-1H-benzo[d]imidazole-6-carboxylic acid] | 9 | -3.82 | –
COCCn1c(Cc2ccc(-c3cccc(OCc4ccc(Cl)cc4F)c3)cc2F)nc2ccc(C(=O)O)cc21 [Example 36, 2-((3′-(4-chloro-2-fluorobenzyloxy)-3-fluorobiphenyl-4-yl)methyl)-1-(2-methoxyethyl)-1H-benzo[d]imidazole-6-carboxylic acid] | 88 | -10.8 | –
COCCn1c(Cc2c(F)cc(-c3cccc(OCc4ccc(Cl)cc4F)n3)cc2F)nc2ccc(C(=O)O)cc21 [Example 37, 2-(4-(6-(4-chloro-2-fluorobenzyloxy)pyridin-2-yl)-2,6-difluorobenzyl)-1-(2-methoxyethyl)-1H-benzo[d]imidazole-6-carboxylic acid] | 13 | -10.6 | –
COCCn1c(Cc2ccc(-c3cccc(OCc4ccc(C#N)cc4F)n3)c(F)c2)nc2ccc(C(=O)O)cc21 [Example 38, 2-(4-(6-(4-cyano-2-fluorobenzyloxy)pyridin-2-yl)-3-fluorobenzyl)-1-(2-methoxyethyl)-1H-benzo[d]imidazole-6-carboxylic acid] | – | 9.5 | 140
COCCn1c(Cc2ccc(-c3cccc(OCc4ccc(Cl)cc4F)c3)c(F)c2)nc2ccc(C(=O)O)cc21 [Example 39, 2-((3′-(4-chloro-2-fluorobenzyloxy)-2-fluorobiphenyl-4-yl)methyl)-1-(2-methoxyethyl)-1H-benzo[d]imidazole-6-carboxylic acid] | 250 | -12.8 | –
COCCn1c(Cc2ccc(-c3cccc(OCc4ccc(C#N)cc4F)c3)c(F)c2)nc2ccc(C(=O)O)cc21 [Example 40, 2-((3′-(4-cyano-2-fluorobenzyloxy)-2-fluorobiphenyl-4-yl)methyl)-1-(2-methoxyethyl)-1H-benzo[d]imidazole-6-carboxylic acid] | 260 | 6.91 | –
